Source: patent US11001600B2, “Disubstituted compounds for treatment of medical disorders” (Achillion Pharmaceuticals, Inc., priority 2015, dated 2021)

Molecular target: Human Factor D (Homo sapiens (Human), UniProt P00746)
Test: Human Factor D assay
Type: biochemical
Conditions: not given
Method: Example 8. Human Factor D Assay
Human Factor D (purified from human serum, Complement Technology, Inc.) at 80 nM final concentration is incubated with test compound at various concentrations for 5 minutes at room temperature in 50 mM Tris, 1M NaCl, pH 7.5. A synthetic substrate Z-L-Lys-SBzl and DTNB (Ellman's reagent) are added to final concentrations of 100 μM each. Absorbance at 405 nm (A405) is recorded at 30 second intervals for 30 minutes using a microplate spectrophotometer. IC50 values are calculated by nonlinear regression of complement Factor D reaction rates as a function of test compound concentration.

Human Factor D, sequence (P00746 26-253): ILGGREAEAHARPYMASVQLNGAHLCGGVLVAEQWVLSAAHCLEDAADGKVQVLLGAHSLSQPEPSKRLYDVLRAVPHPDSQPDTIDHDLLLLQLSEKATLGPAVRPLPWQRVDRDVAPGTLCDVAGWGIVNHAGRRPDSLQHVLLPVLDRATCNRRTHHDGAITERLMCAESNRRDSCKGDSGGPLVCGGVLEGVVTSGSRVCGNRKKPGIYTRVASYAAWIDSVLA

Compound	IC50 [µM]
CC(C)(C)OC(=O)N=S(C)(=O)c1cccc(-c2cccc(NC(=O)[C@@H]3C[C@@H](F)CN3C(=O)Cn3nc(C(N)=O)c4ccccc43)c2F)c1 (stereo partly drawn) [Compound 49, tert-butyl ((3′-((2S,4R)-1-(2-(3-carbamoyl-1H-indazol-1-yl)acetyl)-4-fluoropyrrolidine-2-carboxamido)-2′-fluoro-[1,1′-biphenyl]-3-yl)(methyl)(oxo)-16-sulfaneylidene)-14-azanecarboxylate]	1 to 10

Same assay, conditions: Factor D 80 nM, substrate Z-L-Lys-SBzl; Table 1; read-out: IC50

Compound	IC50 [µM]
CCOP(=O)(COc1cc2c(cc1-c1cnc(C)nc1)c(C(C)=O)cn2CC(=O)N1C[C@H](F)C[C@H]1C(=O)Nc1cccc(-c2ccccc2Cl)c1F)OCC [Compound 8, diethyl (3-acetyl-1-(2-((2S,4R)-2-(2′-chloro-2-fluorobiphenyl-3-ylcarbamoyl)-4-fluoropyrrolidin-1-yl)-2-oxoethyl)-5-(2-methylpyrimidin-5-yl)-1H-indol-6-yloxy)methylphosphonate]	< 1
CC(=O)c1cn(CC(=O)N2C[C@H](F)C[C@H]2C(=O)Nc2cccc(-c3ccccc3Cl)c2F)c2cc(OCP(=O)(O)O)c(-c3cnc(C)nc3)cc12 [Compound 9, (3-acetyl-1-(2-((2S,4R)-2-(2′-chloro-2-fluorobiphenyl-3-ylcarbamoyl)-4-fluoropyrrolidin-1-yl)-2-oxoethyl)-5-(2-methylpyrimidin-5-yl)-1H-indol-6-yloxy)methylphos-phonic acid]	< 1
CC(=O)c1cn(CC(=O)N2C[C@H](F)C[C@H]2C(=O)Nc2cccc(Br)n2)c2cc(OCP(=O)(O)O)c(-c3cnc(C)nc3)cc12 [Compound 13, (3-acetyl-1-(2-((2S,4R)-2-(6-bromopyridin-2-ylcarbamoyl)-4-fluoropyrrolidin-1-yl)-2-oxoethyl)-5-(2-methylpyrimidin-5-yl)-1H-indol-6-yloxy)methylphos-phonic acid]	< 1

Same assay, conditions: Factor D 80 nM, substrate Z-L-Lys-SBzl; Table 2 (headed TABLE 1); read-out: IC50

Compound	IC50 [µM]
CC(=O)c1nn(CC(=O)N2C[C@H](F)C[C@H]2C(=O)Nc2cccc(Br)n2)c2cc(OCC(=O)N(C)C)c(-c3cnc(C)nc3)cc12 [Compound 26, (2S,4R)-1-(2-(3-acetyl-6-(2-(dimethylamino)-2-oxoethoxy)-5-(2-methylpyrimidin-5-yl)-1H-indazol-1-yl)acetyl)-N-(6-bromopyridin-2-yl)-4-fluoropyrrolidine-2-carboxamide]	< 1
CC(=O)c1nn(CC(=O)N2C[C@H](F)C[C@H]2C(=O)Nc2cccc(Br)n2)c2cc(OCCOCc3ccccc3)c(-c3cnc(C)nc3)cc12 [Compound 33, (2S,4R)-1-(2-(3-acetyl-6-(2-(benzyloxy)ethoxy)-5-(2-methylpyrimidin-5-yl)-1H-indazol-1-yl)acetyl)-N-(6-bromopyridin-2-yl)-4-fluoropyrrolidine-2-carboxamide]	< 1
COCOCCOc1cc2c(cc1-c1cnc(C)nc1)c(C(C)=O)nn2CC(=O)N1C[C@H](F)C[C@H]1C(=O)Nc1cccc(Br)n1 [Compound 39, (2S,4R)-1-(2-(3-acetyl-6-(2-(methoxymethoxy)ethoxy)-5-(2-methylpyrimidin-5-yl)-1H-indazol-1-yl)acetyl)-N-(6-bromopyridin-2-yl)-4-fluoropyrrolidine-2-carboxamide]	< 1
CC(=O)c1nn(CC(=O)N2C[C@H](F)C[C@H]2C(=O)Nc2cccc(Br)n2)c2cc(OCCO)c(-c3cnc(C)nc3)cc12 [Compound 41, (2S,4R)-1-(2-(3-acetyl-6-(2-hydroxyethoxy)-5-(2-methylpyrimidin-5-yl)-1H-indazol-1-yl)acetyl)-N-(6-bromopyridin-2-yl)-4-fluoropyrrolidine-2-carboxamide]	< 1
CC(=O)c1nn(CC(=O)N2C[C@H](F)C[C@H]2C(=O)Nc2cccc(Br)n2)c2cc(OCCN(C)C)c(-c3cnc(C)nc3)cc12 [Compound 44, (2S,4R)-1-(2-(3-acetyl-6-(2-(dimethylamino)ethoxy)-5-(2-methylpyrimidin-5-yl)-1H-indazol-1-yl)acetyl)-N-(6-bromopyridin-2-yl)-4-fluoropyrrolidine-2-carboxamide]	< 1
CC(=O)c1nn(CC(=O)N2C[C@H](F)C[C@H]2C(=O)Nc2cccc(Br)n2)c2ccc(-c3cnc(S(C)(=N)=O)nc3)cc12 (stereo partly drawn) [Compound 46, (2S,4R)-1-(2-(3-acetyl-5-(2-(S-methylsulfonimidoyl)pyrimidin-5-yl)-1H-indazol-1-yl)acetyl)-N-(6-bromopyridin-2-yl)-4-fluoropyrrolidine-2-carboxamide]	< 1
CC(=O)c1cn(CC(=O)N2C[C@H](F)C[C@H]2C(=O)Nc2cccc(Br)n2)c2ccc(S(C)(=O)=NC(=O)OC(C)(C)C)cc12 (stereo partly drawn) [Compound 47, tert-butyl ((3-acetyl-1-(2-((2S,4R)-2-((6-bromopyridin-2-yl)carbamoyl)-4-fluoropyrrolidin-1-yl)-2-oxoethyl)-1H-indol-5-yl)(methyl)(oxo)-16-sulfaneylidene)-14-azanecarboxylate]	< 1
CC(=O)c1cn(CC(=O)N2C[C@H](F)C[C@H]2C(=O)Nc2cccc(Br)n2)c2ccc(S(C)(=N)=O)cc12 (stereo partly drawn) [Compound 48, (2S,4R)-1-(2-(3-acetyl-5-(S-methylsulfonimidoyl)-1H-indol-1-yl)acetyl)-N-(6-bromopyridin-2-yl)-4-fluoropyrrolidine-2-carboxamide]	< 1
